From patent US8357506B2, “Method of identifying improved conjugates of biologically active compounds” (priority 2002, dated 2013)

Key:
E. coli = experiment: Antibiotic activity testing (TC50, dilution assay, turbidity); type: cell-based, E. coli (DH5α)
Experimental: The TC50 or MIC procedure for antibiotic sensitivity testing involves an antibiotic dilution assay, which can be performed in microtitre plates. A series of twofold dilutions of each antibiotic are made in the wells, and then all wells are inoculated with a standard amount of the same test organism. After incubation, growth in the presence of the various antibiotics is observed by measuring turbidity.
Bacteria: B. pumilus and E. coli (DH5α)
Bacterial cultures are initiated from the plates for 2 to 3 weeks. After this time period bacteria are streaked out on new plates from the backups stored at −80° C. Due to the lack of resistance of the bacteria, new cultures are not to be initiated from an old plate or any liquid cultures derived from old plates.
Growth medium (GM) (per liter): 10 g Bacto-tryptone, 5 g Bacto-yeast extract, 6 g HEPES (25 mM), 5.4 g NaCl, pH 7.3
Compound stocks 10 or 100 mM in DMSO stored at −20° C.
• 1. Grow B. pumilus from an LB agar plate in a flask (max. 10% volume) up to about 50 ml in growth medium (GM) • 2. Dilute overnight suspension 1:10 in GM • 3. Determine OD600 of diluted bacterial suspension • 4. Dilute bacterial suspension in GM to an OD600 of 0.03-0.04. (6 ml/plate) • 5. Add 200 μl GM to the outer wells (Row A, Row H, Column 1, Column 12) • 6. Add 100 μl GM to each well starting from C2, row 3. • 7. […]
8.3. […] Determine OD600 on plate reader.

white blood cells = experiment: Immune cell selective uptake (immune selectivity ratio) in blood cell / buffy coat preparations; type: cell-based; conditions: fluorescent compounds, FIG. 1
Experimental: Freshly drawn heparinised blood or buffy coat preparations are used for the determination of immune cell partition ratios. Buffy coat preparations are preferred. These may be obtained from donor blood by simple centrifugation of whole blood (4795 g for 10 minutes). Following centrifugation, plasma is collected from the surface, after which immune cells are expressed from the donor bags along with the erythrocytes lying immediately below the leukocyte layer. This ensures high yields and a sufficient population of erythrocytes for partition. 5 ml of the resulting cell suspension are dispensed into T25 culture flasks. Substrates are added to a final concentration between 1 and 10 μM and the suspensions incubated at 37° C., in a 5% CO2 atmosphere. For analysis of uptake kinetics, samples are withdrawn at 0, 2, 5, 10, 30, 60, 90, 180, or 240 min after substrate addition. For screening purposes, samples are taken at 0 and 120 minutes. […]
Uptake of fluorescent compounds is monitored using fluorescence microscopy. Excitation and emission wavelengths depend of the fluorescence label in use. […]
Cell lysates are analysed using a HP 1100 HPLC System (Agilent Technologies, Waldbronn, Germany) with a Kromasil 3.5μ […], 50×2.0 mm column and guard cartridge system (both, Phenomenex, Aschaffenburg, Germany) run at 30° C. […]
Masses are monitored according to the known or expected M/Z ratios. […]

CCC1OC(=O)C(C)C(OC2CC(C)(OC)C(O)C(C)O2)C(C)C(OC2OC(C)CC(NC)C2O)C(C)(O)CC(C)CN(C)C(C)C(O)C1(C)O (centres unmarked) [Compound 96]
TC50 in E. coli (E. coli): 28 µM

COc1cc(C)c(/C(=C\C(C)=O)CC(N)C(=O)O)cc1OC (centres unmarked) [Compound 4]
uptake rate (white blood cells): rapid
